In patent US4663329A, “Thienopyridinone derivatives and anti-bacterial compositions containing them” (Sanofi, priority 1984, dated 1987):
Converted amounts (≈) assume the structure as drawn. Where two headings read alike, the source gives them in different places.

Tests used:
Format in all cases: cell-based
[1] = tested on: Staphylococcus aureus 53154 IP; assay: In vitro antibacterial activity, MIC, Staphylococcus aureus 53154 IP; conditions: Staphylococcus aureus 53154 IP; 37° C., pH=7.4, inoculum 10^4; read-out: MIC
Experimental: (§1) Tests carried out in vitro in accordance with the experimental procedure described hereunder have provided evidence of the antibacterial activity in question.
(§2) For this purpose, the M.I.C. were determined i.e. the minimal inhibiting concentrations of the compound under study acting on the growth of the bacteria at 37° C.
(§3) The serial dilutions method was used utilizing a MUELLER HINTON gelose medium at pH=7.4 and a bacterial inoculum of 10^4 units forming colonies. This inoculum was applied to the gelose by means of a multiple sowing device.
(§4) A scale of concentrations ranging from 100 to 0.05 μg/ml of compound to be studied was used starting from mother solutions titrating 1000 μg/ml, all the subsequent dilutions being effected in distilled water.

[2] = tested on: Streptococcus faecalis 5855 IP; assay: In vitro antibacterial activity, MIC, Streptococcus faecalis 5855 IP; conditions: Enterococcus faecalis, 37° C., pH=7.4, inoculum 10^4, read-out: MIC
Experimental: as §1, §2, §3, §4

[3] = tested on: Bacillus subtilis ATCC 6633; assay: In vitro antibacterial activity, MIC, Bacillus subtilis ATCC 6633; conditions: ATCC6633
Experimental: as §1, §2, §3, §4

[4] = tested on: Escherichia coli 54127 IP; assay: In vitro antibacterial activity, MIC, Escherichia coli 54127 IP; conditions: Escherichia coli 54127 IP; 37° C., pH=7.4, inoculum 10^4; read-out: MIC
Experimental: as §1, §2, §3, §4

[5] = tested on: Escherichia coli SOL RL 90; assay: In vitro antibacterial activity, MIC, Escherichia coli SOL RL 90; conditions: SOLRL90
Experimental: as §1, §2, §3, §4

[6] = tested on: Citrobacter freundii GN 346; assay: In vitro antibacterial activity, MIC, Citrobacter freundii GN 346; conditions: GN346
Experimental: as §1, §2, §3, §4

[7] = tested on: Proteus vulgaris RL 99 bis; assay: In vitro antibacterial activity, MIC, Proteus vulgaris RL 99 bis; conditions: RL99BIS
Experimental: as §1, §2, §3, §4

[8] = tested on: Proteus mirabilis ATCC 21100; assay: In vitro antibacterial activity, MIC, Proteus mirabilis ATCC 21100; conditions: ATCC21100
Experimental: as §1, §2, §3, §4

Proteus morganii 1510 = assay: In vitro antibacterial activity, MIC, Proteus morganii 1510; conditions: Morganella morganii
Experimental: as §1, §2, §3, §4

[9] = tested on: Providencia stuartii 5158; assay: In vitro antibacterial activity, MIC, Providencia stuartii 5158; conditions: Providencia stuartii 5158; 37° C., pH=7.4, inoculum 10^4; read-out: MIC
Experimental: as §1, §2, §3, §4

[10] = tested on: Serratia liquefaciens 376; assay: In vitro antibacterial activity, MIC, Serratia liquefaciens 376; conditions: 37° C., pH=7.4, inoculum 10^4, read-out: MIC
Experimental: as §1, §2, §3, §4

[11] = tested on: Klebsiella pneumoniae ATCC 10031; assay: In vitro antibacterial activity, MIC, Klebsiella pneumoniae ATCC 10031; conditions: ATCC10031; Klebsiella pneumoniae ATCC 10031; 37° C., pH=7.4, inoculum 10^4; read-out: MIC
Experimental: as §1, §2, §3, §4

[12] = tested on: Klebsiella pneumoniae R 30; assay: In vitro antibacterial activity, MIC, Klebsiella pneumoniae R 30; conditions: R30; Klebsiella pneumoniae R 30; 37° C., pH=7.4, inoculum 10^4; read-out: MIC
Experimental: as §1, §2, §3, §4

[13] = tested on: Enterobacter cloacae P 99; assay: In vitro antibacterial activity, MIC, Enterobacter cloacae P 99; conditions: Enterobacter cloacae, P99
Experimental: as §1, §2, §3, §4

[14] = tested on: Enterobacter hafniae RO 46; assay: In vitro antibacterial activity, MIC, Enterobacter hafniae RO 46; conditions: Hafnia alvei, RO46; Enterobacter hafniae RO 46; 37° C., pH=7.4, inoculum 10^4; read-out: MIC
Experimental: as §1, §2, §3, §4

Shigella sonnei R 018 = assay: In vitro antibacterial activity, MIC, Shigella sonnei R 018; conditions: R018, 37° C., pH=7.4, inoculum 10^4
Experimental: as §1, §2, §3, §4

[15] = tested on: Salmonella typhimurium A 222 IP; assay: In vitro antibacterial activity, MIC, Salmonella typhimurium A 222 IP; conditions: Salmonella enterica
Experimental: as §1, §2, §3, §4

[16] = tested on: Salmonella typhi ATCC 6539; assay: In vitro antibacterial activity, MIC, Salmonella typhi ATCC 6539; conditions: Salmonella enterica
Experimental: as §1, §2, §3, §4

[17] = tested on: Bordetella bronchiseptica ATCC 4617; assay: In vitro antibacterial activity, MIC, Bordetella bronchiseptica ATCC 4617; conditions: ATCC4617, 37° C., pH=7.4, inoculum 10^4, read-out: MIC
Experimental: as §1, §2, §3, §4

[18] = tested on: Pseudomonas aeruginosa 8203; assay: In vitro antibacterial activity, MIC, Pseudomonas aeruginosa 8203; conditions: 37° C., pH=7.4, inoculum 10^4, read-out: MIC
Experimental: as §1, §2, §3, §4

[19] = tested on: Acinetobacter calcoaceticus C 1733; assay: In vitro antibacterial activity, MIC, Acinetobacter calcoaceticus C 1733; conditions: C1733, 37° C., pH=7.4, inoculum 10^4, read-out: MIC
Experimental: as §1, §2, §3, §4

[20] = Bacillus subtilis ATCC 6633, 37° C., pH=7.4, inoculum 10^4, read-out: MIC
[21] = Escherichia coli SOL RL 90, 37° C., pH=7.4, inoculum 10^4, read-out: MIC
[22] = Citrobacter freundii GN 346, 37° C., pH=7.4, inoculum 10^4, read-out: MIC
[23] = Proteus vulgaris RL 99 bis, 37° C., pH=7.4, inoculum 10^4, read-out: MIC
[24] = Proteus mirabilis ATCC 21100, 37° C., pH=7.4, inoculum 10^4, read-out: MIC
[25] = Proteus morganii 1510, 37° C., pH=7.4, inoculum 10^4, read-out: MIC
[26] = Salmonella typhimurium A 222 IP, 37° C., pH=7.4, inoculum 10^4, read-out: MIC

Compound	MIC [1]	MIC [2]	MIC [3, 20]	MIC [4]	MIC [5, 21]	MIC [6, 22]	MIC [7, 23]	MIC (Proteus morganii 1510; [25])	MIC [9]	MIC [10]	MIC [11]	MIC [12]	MIC [13]	MIC [14]	MIC (Shigella sonnei R 018)	MIC [15, 26]	MIC [16]	MIC [17]	MIC [18]	MIC [19]	also measured
CCn1cc(C(=O)O)c(=O)c2cc(C=NOCCCN(C)C)sc21 [Compound E, 4,7-Dihydro-7-ethyl-2-(3-N,N-dimethylamino-propoxy)-iminomethyl-4-oxo-thieno[2,3-b]pyridine-5-carboxylic acid]	6.25 µg/mL (≈ 17.8 µM)	100 µg/mL (≈ 285 µM)	6.25 µg/mL (≈ 17.8 µM)	6.25 µg/mL (≈ 17.8 µM)	25 µg/mL (≈ 71.1 µM)	12.5 µg/mL (≈ 35.6 µM)	12.5 µg/mL (≈ 35.6 µM)	25 µg/mL (≈ 71.1 µM)	25 µg/mL (≈ 71.1 µM)	50 µg/mL (≈ 142 µM)	3.12 µg/mL (≈ 8.88 µM)	25 µg/mL (≈ 71.1 µM)	12.5 µg/mL (≈ 35.6 µM)	6.25 µg/mL (≈ 17.8 µM)	25 µg/mL (≈ 71.1 µM)	25 µg/mL (≈ 71.1 µM)	25 µg/mL (≈ 71.1 µM)	> 100 µg/mL	> 100 µg/mL	> 100 µg/mL	MIC [8, 24]: 3.12 µg/mL (≈ 8.88 µM)
CCn1cc(C(=O)O)c(=O)c2cc(C=Nc3ccccc3O)sc21 [Compound F, 4,7-Dihydro-7-ethyl-2-N-(2-hydroxy-phenyl)-iminomethyl-4-oxo-thieno[2,3-b]pyridine-5-carboxylic acid]	100 µg/mL (≈ 292 µM)	> 100 µg/mL	–	1.56 µg/mL (≈ 4.56 µM)	–	–	–	–	12.5 µg/mL (≈ 36.5 µM)	> 100 µg/mL	12.5 µg/mL (≈ 36.5 µM)	12.5 µg/mL (≈ 36.5 µM)	6.25 µg/mL (≈ 18.3 µM)	1.56 µg/mL (≈ 4.56 µM)	6.25 µg/mL (≈ 18.3 µM)	–	3.12 µg/mL (≈ 9.11 µM)	> 100 µg/mL	> 100 µg/mL	100 µg/mL (≈ 292 µM)	MIC ([3]; Bacillus subtilis): 6.25 µg/mL (≈ 18.3 µM); MIC ([5]; Escherichia coli): 3.12 µg/mL (≈ 9.11 µM); MIC ([6]; Citrobacter freundii): 6.25 µg/mL (≈ 18.3 µM); MIC ([7]; Proteus vulgaris): 3.12 µg/mL (≈ 9.11 µM); MIC ([8]; Proteus mirabilis): 3.12 µg/mL (≈ 9.11 µM); MIC (Proteus morganii 1510; 1510): 6.25 µg/mL (≈ 18.3 µM); MIC ([15]; TYPHIMURIUM): 3.12 µg/mL (≈ 9.11 µM)
CCn1cc(C(=O)O)c(=O)c2cc(C=Nc3ccc(OC)cc3)sc21 [Compound G, 4,7-Dihydro-7-ethyl-2-N-(4-methoxy-phenyl)-iminomethyl-4-oxo-thieno[2,3-b]pyridine-5-carboxylic acid]	> 100 µg/mL	> 100 µg/mL	–	1.56 µg/mL (≈ 4.38 µM)	3.12 µg/mL (≈ 8.75 µM)	–	1.56 µg/mL (≈ 4.38 µM)	0.78 µg/mL (≈ 2.19 µM)	12.5 µg/mL (≈ 35.1 µM)	100 µg/mL (≈ 281 µM)	12.5 µg/mL (≈ 35.1 µM)	12.5 µg/mL (≈ 35.1 µM)	6.25 µg/mL (≈ 17.5 µM)	1.56 µg/mL (≈ 4.38 µM)	6.25 µg/mL (≈ 17.5 µM)	3.12 µg/mL (≈ 8.75 µM)	6.25 µg/mL (≈ 17.5 µM)	> 100 µg/mL	> 100 µg/mL	> 100 µg/mL	MIC ([3]; Bacillus subtilis): 6.25 µg/mL (≈ 17.5 µM); MIC ([6]; Citrobacter freundii): 6.25 µg/mL (≈ 17.5 µM); MIC ([8]; Proteus mirabilis): 6.25 µg/mL (≈ 17.5 µM)
CCn1cc(C(=O)O)c(=O)c2cc(C=NOC(C)(C)C)sc21 [Compound I, 4,7-Dihydro-7-ethyl-4-oxo-2-tert-butoxyiminomethyl-thieno[2,3-b]pyridine-5-carboxylic acid]	> 50 µg/mL	> 100 µg/mL	1.56 µg/mL (≈ 4.84 µM)	> 25 µg/mL	> 50 µg/mL	> 25 µg/mL	> 50 µg/mL	> 25 µg/mL	> 50 µg/mL	> 25 µg/mL	3.12 µg/mL (≈ 9.68 µM)	> 25 µg/mL	> 25 µg/mL	> 25 µg/mL	> 50 µg/mL	> 50 µg/mL	> 25 µg/mL	> 25 µg/mL	> 25 µg/mL	> 25 µg/mL	MIC [8, 24]: > 25 µg/mL
